From the Deep4Chem optical property database
Values joined by “and” are separate entries in the source; they are usually repeats but may differ in a detail not shown here. Equal entries are not always repeated. Blank lines part the entries; values can stand above or below the compound they belong to.

Test: solvent given as SMILES

emission maximum (in CC#N): 642 nm
emission maximum (in CCCCCCC): 511 nm
emission maximum (in CO): 567 nm
emission maximum (in O): 552 nm
Structure (SMILES): O=[N+]([O-])c1ccc(/C=C/c2c[nH]c3ccccc23)cc1

emission maximum (in CC#N): 629 nm
Structure (SMILES): CC(=O)OC[C@H]1O[C@@H](OCC#Cc2ccc(C3=C4C(C)=CC(/C=C/c5ccc([N+](C)(C)C)cc5)=[N+]4[B-](F)(F)n4c(/C=C/c5ccc([N+](C)(C)C)cc5)cc(C)c43)cc2)[C@H](OC(C)=O)C(OC(C)=O)[C@@H]1OC(C)=O (stereo partly specified)

Structure (SMILES): CCCN1C(=O)C(=CC=CC=C2Oc3ccccc3N2CCCS(=O)(=O)[O-])C(=O)N(CCC)C1=S
emission maximum (in C1COCCO1): 584 nm
emission maximum (in CC(C)=O): 580 nm
emission maximum (in CCCCO): 583 nm
emission maximum (in CCCO): 581 nm
emission maximum (in CCO): 579 nm
emission maximum (in CO): 577 nm
emission maximum (in ClC(Cl)Cl): 589 nm
emission maximum (in O): 573 nm

emission maximum (in C1CCCCC1): 633 nm
emission maximum (in CCOC(C)=O): 690 nm
Structure (SMILES): C#CCNC1=C2C=C(c3cc4n(c3)[B-](F)(F)[N+]3=CC=CC3=C4c3c(C)cc(C)cc3C)C(C)=[N+]2[B-](F)(F)n2c(C)ccc21

emission maximum (in ClC(Cl)Cl): 469 nm
Structure (SMILES): COc1ccc(-c2ncc3ccccn23)cc1

Structure (SMILES): CCn1c2sccc2c2c3nsnc3c3c4ccsc4n(CC)c3c21
emission maximum (in C1CCOC1): 521 nm
emission maximum (in CCOC(C)=O): 521 nm
emission maximum (in CN(C)C=O): 552 nm
emission maximum (in Cc1ccccc1): 508 nm
emission maximum (in ClCCl): 548 nm

Structure (SMILES): COc1ccc(-c2nc3c(c4c2-c2ccc(C#N)cc2CC4)-c2ccc(C#N)cc2CC3)cc1
emission maximum (in C1CCOC1): 426 nm
emission maximum (in CC#N): 430 nm
emission maximum (in CCCCCC): 420 nm
emission maximum (in CCOC(C)=O): 423 nm
emission maximum (in CO): 426 nm
emission maximum (in CS(C)=O): 435 nm
emission maximum (in Cc1ccccc1): 422 nm
emission maximum (in ClCCl): 425 nm

Structure (SMILES): Cc1ccc(-c2c3ccc([nH]3)c3nc(c(-c4ccc(C#N)cc4)c4ccc([nH]4)c4ccc([nH]4)c(-c4ccc(C)cc4)c4ccc2o4)C=C3)cc1
emission maximum (in C1CCOC1): 730 nm
emission maximum (in Cc1ccccc1): 722 nm
emission maximum (in c1ccccc1): 722 nm

Structure (SMILES): COc1cc(/C=C/c2cc[n+](Cc3ccc(Br)cc3)cc2)ccc1O
emission maximum (in CC#N): 557 nm
emission maximum (in CC(C)=O): 562 nm
emission maximum (in CC(C)CO): 556 nm
emission maximum (in CC(C)O): 559 nm
emission maximum (in CCC#N): 559 nm
emission maximum (in CCCCCCO): 553 nm
emission maximum (in CCCCCO): 554 nm
emission maximum (in CCCCO): 558 nm
emission maximum (in CCCO): 559 nm
emission maximum (in CCO): 564 nm
emission maximum (in CN(C)C=O): 565 nm
emission maximum (in CN(C)P(=O)(N(C)C)N(C)C): 567 nm
emission maximum (in CO): 566 nm
emission maximum (in CS(C)=O): 568 nm

emission maximum (in CC#N): 558 nm
emission maximum (in ClCCl): 547 nm
Structure (SMILES): COc1ccc(-c2cc3c(s2)c(C(=O)c2ccccc2)cc(=O)n3Cc2ccccc2)cc1

emission maximum (in C1CCCCC1): 424 nm
emission maximum (in CC#N): 568 nm
emission maximum (in CC(C)O): 585.02 nm
emission maximum (in CO): 629 nm
emission maximum (in CS(C)=O): 569.23 nm
emission maximum (in ClC(Cl)Cl): 506 nm
emission maximum (in c1ccccc1): 474.9 nm
Structure (SMILES): CC(=O)c1ccc(-c2nc3ccc(N(C)C)c(Cl)c3s2)cc1

Structure (SMILES): COc1ccc(-c2nc3c(c4c2-c2ccccc2CC4)-c2ccccc2CC3)cc1
emission maximum (in C1CCOC1): 420 nm
emission maximum (in CC#N): 416 nm
emission maximum (in CCCCCC): 408 nm
emission maximum (in CCOC(C)=O): 425 nm
emission maximum (in CO): 428 nm
emission maximum (in CS(C)=O): 415 nm
emission maximum (in Cc1ccccc1): 419 nm
emission maximum (in ClCCl): 424 nm

Structure (SMILES): O=C1c2cccc3cc4ccccc4c(c23)C(=O)N1Cc1ccccn1
emission maximum (in C1CCOC1): 485 nm
emission maximum (in CCCCCC): 465 nm
emission maximum (in CCO): 500 nm
emission maximum (in Cc1ccccc1): 483 nm
emission maximum (in ClCCl): 490 nm

Structure (SMILES): CCN(CC)c1ccc2cc(/C=C/C(=C(C#N)C#N)c3ccc4c(c3)c3ccccc3n4CC)c(=O)oc2c1
emission maximum (in CC(C)=O): 614 nm
emission maximum (in CCOC(C)=O): 590 nm
emission maximum (in CN(C)C=O): 629 nm
emission maximum (in CS(C)=O): 638 nm
emission maximum (in Cc1ccccc1): 571 nm
emission maximum (in ClCCl): 604 nm

emission maximum (in C1CCOC1): 525 nm
Structure (SMILES): CC(C)[Si](C#CC1=CC2=c3cc(C#C[Si](C(C)C)(C(C)C)C(C)C)c4nc(C(F)(F)C(F)(F)C(F)(F)F)nc5c(C#C[Si](C(C)C)(C(C)C)C(C)C)cc(c3c54)C3=CC(C#C[Si](C(C)C)(C(C)C)C(C)C)=C4N=C(C(F)(F)C(F)(F)C(F)(F)F)N=C1C4C32)(C(C)C)C(C)C (stereo unspecified)

emission maximum (in ClCCl): 490 nm
Structure (SMILES): c1ccc(-c2nc(-c3ccc(N4c5ccccc5Sc5ccccc54)cc3)nn2-c2ccc(N3c4ccccc4Sc4ccccc43)cc2)nc1

Structure (SMILES): Cc1ccc2c(c1)C1(c3ccccc3Oc3ccccc31)c1cc(C)ccc1N2c1ccc(-c2nc(-c3ccccc3)cc(-c3ccccc3)n2)cc1
emission maximum (in Cc1ccccc1): 451 nm
emission maximum (in O=P(c1ccccc1)(c1ccccc1)c1ccc2oc3ccc(P(=O)(c4ccccc4)c4ccccc4)cc3c2c1): 452 nm

emission maximum (in CN(C)C=O): 618 nm
emission maximum (in ClC(Cl)Cl): 609 nm
Structure (SMILES): O=C1C2=C3c4sccc4C=CN3C(=O)C2=C2c3sccc3C=CN12

Structure (SMILES): COc1cnc(-c2cc[n+](C3=C(F)C(F)(F)C(F)(F)[C-]3F)cc2)s1
emission maximum (in CC#N): 474 nm
emission maximum (in CC(C)=O): 474 nm
emission maximum (in CCO): 474 nm
emission maximum (in CN(C)C=O): 485 nm
emission maximum (in CO): 472 nm
emission maximum (in CS(C)=O): 490 nm
emission maximum (in ClC(Cl)Cl): 462 nm
emission maximum (in ClCCl): 466 nm

Structure (SMILES): Cc1ccc(C)n1-c1cccc(C#N)c1
emission maximum (in C1CCOC1): 481 nm
emission maximum (in CCCCCC): 403 nm
emission maximum (in CCCCCl): 477 nm
emission maximum (in CCOCC): 444 nm
emission maximum (in ClCCl): 504 nm

Structure (SMILES): CCCCC(CC)CN1C(=O)c2cc(Oc3ccc(OC)cc3)c3c4c(Cl)cc5c6c(cc(Cl)c(c7c(Oc8ccc(OC)cc8)cc(c2c37)C1=O)c64)C(=O)N(c1c(C(C)C)cccc1C(C)C)C5=O (stereo unspecified)
emission maximum (in Cc1ccccc1): 614 nm

emission maximum (in CC#N): 476 nm
emission maximum (in CO): 490 nm
emission maximum (in ClCCl): 474 nm
Structure (SMILES): CCOC(=O)c1ccc(O)c(-c2[nH]c(=O)n3c2-c2ccccc2C3=O)c1

Structure (SMILES): CCCCCCCCCC1(CCCCCCCCC)c2cc(C#Cc3ccc(/C=C/c4ccc(N(CCCCCCCC)CCCCCCCC)cc4)cc3)ccc2-c2ccc(C#Cc3ccc(/C=C/c4ccc(N(CCCCCCCC)CCCCCCCC)cc4)cc3)cc21
emission maximum (in Cc1ccccc1): 464 nm

emission maximum (in C1CCCCC1): 475.96 nm
emission maximum (in C1CCOC1): 505.05 nm
emission maximum (in CN(C)C=O): 521.92 nm
emission maximum (in CO): 529.1 nm
emission maximum (in ClC(Cl)Cl): 505.05 nm
emission maximum (in c1ccccc1): 483.09 nm
Structure (SMILES): CC1(C)Cc2c(c3ccccc3c3nc4ccccc4nc23)O1

emission maximum (in CO): 785 nm and 790 nm
Structure (SMILES): CC1(C)C(/C=C/C2=C(c3ccc(C(=O)O)cc3)C(=C/C=C3/N(CCCCS(=O)(=O)[O-])c4ccc(S(=O)(=O)[O-])cc4C3(C)C)/CCC2)=[N+](CCCCS(=O)(=O)[O-])c2ccc(S(=O)(=O)[O-])cc21

emission maximum (in C1CCCCC1): 427 nm
Structure (SMILES): c1cc2c3c(c1)OCCCCCCCOc1cccc(c1-c1c4ccccc4c-3c3ccccc13)OCCCCCCCO2

Structure (SMILES): CN(C)c1ccc(C2=Cc3cccc[n+]3[B-](F)(F)O2)cc1
emission maximum (in C1CCOC1): 499 nm
emission maximum (in C1COCCO1): 486 nm
emission maximum (in CC1CCCCC1): 447 nm
emission maximum (in CC#N): 528 nm
emission maximum (in CCOC(C)=O): 499 nm
emission maximum (in CCOCC): 477 nm
emission maximum (in CN(C)C=O): 530 nm
emission maximum (in CO): 517 nm
emission maximum (in COC(C)=O): 514 nm
emission maximum (in ClC(Cl)Cl): 490 nm

emission maximum (in C1CCCCC1): 598 nm
Structure (SMILES): CCCCC#Cc1cccc2cc(CCCC)c3cc(-c4cc[b-]5c(c4)c(CCCC)cc4cccc(C#CCCCC)[n+]54)cc[b-]3[n+]12

emission maximum (in C1CCOC1): 455 nm
Structure (SMILES): CC(=O)c1ccc(-c2cnc3nn4ccccc4c3n2)cc1

emission maximum (in ClC(Cl)Cl): 461 nm
Structure (SMILES): O=c1c2cc3ccc4cccc5ccc(c2c(=O)n1-c1ccccc1)c3c45

emission maximum (in O): 526 nm
Structure (SMILES): CC1(C)C(=O)C=Cc2ccc(N)cc21

emission maximum (in ClC(Cl)Cl): 661 nm
Structure (SMILES): F[B-]1(F)n2c(cc3oc(-c4ccccc4)cc32)C=C2C=c3oc(-c4ccccc4)cc3=[N+]21

emission maximum (in CC#N): 581 nm
emission maximum (in CCO): 571 nm
emission maximum (in CN(C)C=O): 585 nm
emission maximum (in O): 581 nm
Structure (SMILES): CCOC(=O)c1ccccc1-c1c2ccc(=[N+](CC)CC)cc-2oc2cc(N(CC)CC)ccc12

emission maximum (in ClC(Cl)Cl): 418 nm
Structure (SMILES): CCCCn1c2ccc(-c3ccc4ccccc4c3)cc2c2ccc3c4cc(-c5ccc6ccccc6c5)ccc4n(CCCC)c3c21

emission maximum (in ClC(Cl)Cl): 469.48 nm
Structure (SMILES): CCCCCCn1c2cc(/C=C(\C#N)c3cccs3)ccc2c2ccc(/C=C(\C#N)c3cccs3)cc21

emission maximum (in C1COCCO1): 471 nm
emission maximum (in CC#N): 475 nm
emission maximum (in CCO): 477 nm
emission maximum (in CCOC(C)=O): 472 nm
emission maximum (in O): 477 nm
Structure (SMILES): CN1C(=O)/C(=C/c2ccncc2)N=C1c1ccccc1

emission maximum (in C1CCOC1): 502 nm
emission maximum (in C1COCCO1): 466 nm
emission maximum (in CC#N): 560 nm
emission maximum (in CCO): 556 nm
emission maximum (in ClCCl): 519 nm
Structure (SMILES): C(=C\c1ccc(N(c2ccccc2)c2ccccc2)cc1)/c1ccc(-c2cc(-c3ccccn3)nc(-c3ccccn3)c2)cc1

emission maximum (in CC#N): 411 nm
Structure (SMILES): CCOC(=O)c1c2c3c(ccc(F)c3c3cc4c(cc13)[Si](C)(C)O[Si]4(C)C)N(C)C2=O

emission maximum (in CC#N): 769 nm
Structure (SMILES): CC(=O)OC[C@H]1O[C@@H](OCC#Cc2ccc(C3=C4C(C)=CC(/C=C/c5ccc(N(C)C)cc5)=[N+]4[B-](F)(F)n4c(/C=C/c5ccc(N(C)C)cc5)cc(C)c43)cc2)[C@H](OC(C)=O)C(OC(C)=O)[C@@H]1OC(C)=O (stereo partly specified)

emission maximum (in ClC(Cl)Cl): 449 nm
Structure (SMILES): F[B-]1(F)OC(c2ccc(Br)cc2)=Cc2c3ccccc3c3ccccc3[n+]21

emission maximum (in O): 432 nm
Structure (SMILES): O=C(O)CCCCCn1c2ccccc2c(=O)c2cc(F)ccc21

emission maximum (in CC#N): 536.75 nm
emission maximum (in CCCCCC): 487.83 nm
Structure (SMILES): Cc1ccc2c(c1)C(=O)c1ccncc1-2

Structure (SMILES): c1ccc2c(c1)c1ccccc1n2-c1ccc(-c2ccc(-n3c4ccccc4c4ccccc43)nc2-n2c3ccccc3c3ccccc32)nn1
emission maximum (in CC#N): 464.96 nm
emission maximum (in Cc1ccccc1): 423 nm
emission maximum (in ClCCl): 432.68 nm
